{"source": "patent US20110183928A1", "about": "(BAYER SCHERING PHARMA AKTIENGESELLSCHAFT, priority 2008, published 2011)", "assay_type_in_all_cases": "cell-based", "key": {"[1]": {"target": "T1, progesterone receptor (PR) (Homo sapiens, UniProt P06401)", "T1 construct": "of the progesterone receptor (PR, amino acids 680-933); expressed in transfected cells; host or cells: CHO K1", "T1 sequence (P06401 680-933)": "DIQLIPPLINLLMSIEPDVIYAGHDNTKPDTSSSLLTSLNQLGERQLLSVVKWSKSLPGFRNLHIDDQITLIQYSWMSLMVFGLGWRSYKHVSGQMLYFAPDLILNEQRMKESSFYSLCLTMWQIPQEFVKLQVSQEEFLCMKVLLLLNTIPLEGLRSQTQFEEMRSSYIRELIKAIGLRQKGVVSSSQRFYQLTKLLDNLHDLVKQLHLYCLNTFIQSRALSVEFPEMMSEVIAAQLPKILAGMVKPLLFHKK", "test": "Cellular in vitro assay, GAL4-PR chimera luciferase reporter in CHO K1 cells (selectivity)", "conditions": "GAL4-PR ligand-binding domain chimera, agonist progesterone", "excerpt": "(§1) 1. Cellular In Vitro Assay to Determine the Inhibitory MR Activity and MR Selectivity Compared with Other Steroid Hormone Receptors\n(§2) Antagonists of the human mineralocorticoid receptor (MR) are identified, and the efficacy of the compounds described herein is quantified with the aid of a recombinant cell line. The cell is originally derived from a hamster ovary epithelial cell (Chinese Hamster Ovary, CHO K1, ATCC: American Type Culture Collection, VA 20108, USA).\n(§3) An established chimera system in which the ligand-binding domains of human steroid hormone receptors are fused to the DNA-binding domain of the yeast transcription factor GAL4 is used in this CHO K1 cell line. The GAL4-steroid hormone receptor chimeras produced in this way are cotransfected and stably expressed with a reporter construct in the CHO cells.\n(§4) To generate the GAL4-steroid hormone receptor chimeras, the GAL4 DNA-binding domain (amino acids 1-147) from the vector pFC2-dbd (from Stratagene) is cloned with the PCR-amplified ligand-binding domains of the mineralocorticoid receptor (MR, amino acids 734-985), of the glucocorticoid receptor (GR, amino acids 443-777), of the progesterone receptor (PR, amino acids 680-933) and of the androgen receptor (AR, amino acids 667-919) into the vector pIRES2 (from Clontech). The reporter construct, which contains five copies of the GAL4 binding site upstream of a thymidine kinase promoter, leads to expression of firefly luciferase (Photinus pyralis) after activation and binding of the GAL4-steroid hormone receptor chimeras by the respective specific agonists aldosterone (MR), dexamethasone (GR), progesterone (PR) and dihydrotestosterone (AR).\n(§5) The MR, GR, PR and AR cells are plated out in medium (Optimem, 2.5% FCS, 2 mM glutamine, 10 mM HEPES) in 96-well (or 384- or 1536-well) microtiter plates the day before the assay, and are kept in a cell incubator (96% air humidity, 5% v/v CO2, 37° C.). On the day of the assay, the substances to be tested are taken up in the abovementioned medium and added to the cells. About 10 to 30 minutes after addition of the test substances, the respective specific agonists of the steroid hormone receptors are added. After a further incubation time of 5 to 6 hours, the luciferase activity is measured with the aid of a video camera. The relative light units measured as a function of the substance concentration give a sigmoidal stimulation curve. The IC50 values are calculated with the aid of the computer program GraphPad PRISM (Version 3.02)."}, "[2]": {"target": "T2, human mineralocorticoid receptor (MR) (Homo sapiens, UniProt P08235)", "T2 construct": "expressed in transfected cells; host or cells: CHO K1", "T2 sequence (P08235 734-984 limits assumed)": "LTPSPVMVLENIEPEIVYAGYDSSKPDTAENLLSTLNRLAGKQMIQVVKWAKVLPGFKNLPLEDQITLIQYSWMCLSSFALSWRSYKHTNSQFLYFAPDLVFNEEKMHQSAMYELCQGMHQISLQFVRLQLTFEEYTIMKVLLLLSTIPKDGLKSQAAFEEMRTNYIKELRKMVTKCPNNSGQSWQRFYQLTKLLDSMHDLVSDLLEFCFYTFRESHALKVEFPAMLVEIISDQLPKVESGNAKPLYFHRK", "test": "Cellular in vitro assay, GAL4-MR chimera luciferase reporter in CHO K1 cells (inhibitory MR activity)", "conditions": "GAL4-MR ligand-binding domain chimera, agonist aldosterone", "excerpt": "as §1, §2, §3, §4, §5"}, "[3]": {"target": "T3, glucocorticoid receptor (GR) (Homo sapiens, UniProt P04150)", "T3 construct": "of the glucocorticoid receptor (GR, amino acids 443-777); expressed in transfected cells; host or cells: CHO K1", "T3 sequence (P04150 443-777)": "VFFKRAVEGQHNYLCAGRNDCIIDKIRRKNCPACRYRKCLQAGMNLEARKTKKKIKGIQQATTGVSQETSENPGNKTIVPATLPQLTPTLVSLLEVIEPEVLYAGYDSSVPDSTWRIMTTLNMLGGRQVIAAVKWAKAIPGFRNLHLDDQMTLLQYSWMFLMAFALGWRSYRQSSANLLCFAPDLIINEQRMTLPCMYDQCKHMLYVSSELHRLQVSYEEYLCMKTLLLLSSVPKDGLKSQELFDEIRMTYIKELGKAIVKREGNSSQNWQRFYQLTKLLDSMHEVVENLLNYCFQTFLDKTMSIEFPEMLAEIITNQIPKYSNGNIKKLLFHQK", "test": "Cellular in vitro assay, GAL4-GR chimera luciferase reporter in CHO K1 cells (selectivity)", "conditions": "GAL4-GR ligand-binding domain chimera, agonist dexamethasone", "excerpt": "as §1, §2, §3, §4, §5"}, "androgen receptor (AR)": {"target": "T4, androgen receptor (AR) (Homo sapiens, UniProt P10275)", "T4 construct": "of the androgen receptor (AR, amino acids 667-919); expressed in transfected cells; host or cells: CHO K1", "T4 sequence (P10275 667-919)": "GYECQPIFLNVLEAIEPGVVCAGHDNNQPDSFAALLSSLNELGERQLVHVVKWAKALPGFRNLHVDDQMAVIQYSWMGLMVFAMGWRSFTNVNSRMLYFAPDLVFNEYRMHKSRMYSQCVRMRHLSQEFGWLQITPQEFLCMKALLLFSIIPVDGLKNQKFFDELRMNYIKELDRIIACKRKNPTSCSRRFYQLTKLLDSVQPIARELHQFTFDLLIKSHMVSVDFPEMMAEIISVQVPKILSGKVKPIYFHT", "test": "Cellular in vitro assay, GAL4-AR chimera luciferase reporter in CHO K1 cells (selectivity)", "conditions": "GAL4-AR ligand-binding domain chimera, agonist dihydrotestosterone", "excerpt": "as §1, §2, §3, §4, §5"}}}
{"smiles": "CCc1cccc2c(C(CCCO)c3ccc(C(F)(F)F)cc3)c[nH]c12", "note": "(single isomer, unassigned) [Example 3-1, 4-(7-Ethyl-1H-indol-3-yl)-4-[4-(trifluoromethyl)phenyl]butan-1-ol]", "values": [{"measurement": "IC50", "setting": "[1]", "result": 5870, "unit": "nM"}, {"measurement": "IC50", "setting": "[2]", "result": 420, "unit": "nM"}, {"measurement": "IC50", "setting": "[3]", "result": 6470, "unit": "nM"}, {"measurement": "IC50", "setting": "androgen receptor (AR)", "result": 3650, "unit": "nM"}]}
{"smiles": "CCc1cccc2c(C(CCCC#N)c3ccc(C(F)(F)F)cc3)c[nH]c12", "note": "(single isomer, unassigned) [Example 4-1, 5-(7-Ethyl-1H-indol-3-yl)-5-[4-(trifluoromethyl)phenyl]pentanenitrile]", "values": [{"measurement": "IC50", "setting": "[1]", "result": 1740, "unit": "nM"}, {"measurement": "IC50", "setting": "[2]", "result": 140, "unit": "nM"}, {"measurement": "IC50", "setting": "[3]", "result": 2340, "unit": "nM"}, {"measurement": "IC50", "setting": "androgen receptor (AR)", "result": 2000, "unit": "nM"}]}
{"smiles": "Cc1cccc2c(C(CCCC#N)c3ccc(C(F)(F)F)cc3)c[nH]c12", "note": "(single isomer, unassigned) [Example 8-1, 5-(7-Methyl-1H-indol-3-yl)-5-[4-(trifluoromethyl)phenyl]pentanenitrile]", "values": [{"measurement": "IC50", "setting": "[1]", "result": 2710, "unit": "nM"}, {"measurement": "IC50", "setting": "[2]", "result": 200, "unit": "nM"}, {"measurement": "IC50", "setting": "[3]", "result": 5100, "unit": "nM"}, {"measurement": "IC50", "setting": "androgen receptor (AR)", "result": 1530, "unit": "nM"}]}
{"smiles": "CS(=O)(=O)Nc1cccc2c(C(CCC#N)c3ccc(C(F)(F)F)cc3)c[nH]c12", "note": "(single isomer, unassigned) [Example 17-1]", "values": [{"measurement": "IC50", "setting": "[1]", "result": 4500, "unit": "nM"}, {"measurement": "IC50", "setting": "[2]", "result": 20, "unit": "nM"}, {"measurement": "IC50", "setting": "[3]", "result": 2210, "unit": "nM"}, {"measurement": "IC50", "setting": "androgen receptor (AR)", "result": 2270, "unit": "nM"}]}
{"smiles": "CS(=O)(=O)Nc1cccc2c(C(CCO)c3ccc(C(F)(F)F)cc3)c[nH]c12", "note": "(stereo not shown) [Example 16, N-(3-{3-Hydroxy-1-[4-(trifluoromethyl)phenyl]propyl}-1H-indol-7-yl)methanesulfonamide]", "values": [{"measurement": "IC50", "setting": "[2]", "result": 330, "unit": "nM"}, {"measurement": "IC50", "setting": "[3]", "result": 700, "unit": "nM"}]}
{"smiles": "CCc1cccc2c(C(CCC#N)c3ccc4ccccc4c3)c[nH]c12", "note": "(stereo not shown) [Example 34]", "values": [{"measurement": "IC50", "setting": "[1]", "result": 3350, "unit": "nM"}, {"measurement": "IC50", "setting": "[2]", "result": 90, "unit": "nM"}, {"measurement": "IC50", "setting": "[3]", "result": 390, "unit": "nM"}, {"measurement": "IC50", "setting": "androgen receptor (AR)", "result": 4200, "unit": "nM"}]}
